# Data taken from patent US20250129067A1 (Progentos Therapeutics, Inc., priority 2021, published 2025).
# Like-named read-outs stand apart in the source and are kept apart here.
# What was measured:
# [1] = system: NG2+ cells (OPCs) in brain; assay: OPC population recovery after administration of PDGFRα inhibitor, NG2 staining; assay type: in vivo, C57BL/6 mice; details: mice
# Protocol: OPCs first appear during embryonic organogenesis and continue to exist in adult brain (in both gray and white matter), maintaining their population through self-renewal. To assess whether PDGFRα inhibitors described herein have an effect on the maintenance of the OPC population when administered in vivo, two different PDGFRα inhibitors were tested, each having a different in vivo half-life. Then, the expression of NG2 (marker for OPCs) was assessed in the brains of the treated mice at various time points after treatment as described in more detail below.
# The mice received a single administration of either Compound 6 (10 mg/kg) or Compound 78 (5 mg/kg). Control animals received a vehicle control. Then, at days 3, 6, 9, or 12 days after dosing, some of the animals from each of the treatment groups were sacrificed and their brains were harvested for analysis.
# The floating sections were incubated with a rabbit anti-NG2 antibody (EMD Millipore, catalog no. AB5320) (i.e., the primary antibody) diluted in blocking solution (to a concentration of 1:1000) overnight at room temperature on a shaker.
# NG2 staining was assessed by an observer blinded to the treatment condition and given a score from 1 to 5, with 5 representing the level of OPC population observed in naïve animals that had not received an exemplar PDGFRα inhibitor.
# [2] = system: Oligodendrocyte progenitor cells (OPCs); assay: In vitro OPC differentiation assay, MBP expression (immunocytochemistry); details: 72 hours of treatment; fold change over vehicle
# [3] = system: GPR17+ cells (newly differentiated oligodendrocytes); assay: In vivo OPC differentiation, GPR17+ cells in brain
# In vivo half-life = details: comparison in words
# PDGFRα = PDGFRα (Homo sapiens (Human), UniProt P16234); assay: PDGFRα kinase enzyme assay (Promega PDGFRα Kinase Enzyme System, ADP-Glo); assay type: biochemical; details: 150 uM ATP
# Chain of PDGFRα (P16234 24-1089): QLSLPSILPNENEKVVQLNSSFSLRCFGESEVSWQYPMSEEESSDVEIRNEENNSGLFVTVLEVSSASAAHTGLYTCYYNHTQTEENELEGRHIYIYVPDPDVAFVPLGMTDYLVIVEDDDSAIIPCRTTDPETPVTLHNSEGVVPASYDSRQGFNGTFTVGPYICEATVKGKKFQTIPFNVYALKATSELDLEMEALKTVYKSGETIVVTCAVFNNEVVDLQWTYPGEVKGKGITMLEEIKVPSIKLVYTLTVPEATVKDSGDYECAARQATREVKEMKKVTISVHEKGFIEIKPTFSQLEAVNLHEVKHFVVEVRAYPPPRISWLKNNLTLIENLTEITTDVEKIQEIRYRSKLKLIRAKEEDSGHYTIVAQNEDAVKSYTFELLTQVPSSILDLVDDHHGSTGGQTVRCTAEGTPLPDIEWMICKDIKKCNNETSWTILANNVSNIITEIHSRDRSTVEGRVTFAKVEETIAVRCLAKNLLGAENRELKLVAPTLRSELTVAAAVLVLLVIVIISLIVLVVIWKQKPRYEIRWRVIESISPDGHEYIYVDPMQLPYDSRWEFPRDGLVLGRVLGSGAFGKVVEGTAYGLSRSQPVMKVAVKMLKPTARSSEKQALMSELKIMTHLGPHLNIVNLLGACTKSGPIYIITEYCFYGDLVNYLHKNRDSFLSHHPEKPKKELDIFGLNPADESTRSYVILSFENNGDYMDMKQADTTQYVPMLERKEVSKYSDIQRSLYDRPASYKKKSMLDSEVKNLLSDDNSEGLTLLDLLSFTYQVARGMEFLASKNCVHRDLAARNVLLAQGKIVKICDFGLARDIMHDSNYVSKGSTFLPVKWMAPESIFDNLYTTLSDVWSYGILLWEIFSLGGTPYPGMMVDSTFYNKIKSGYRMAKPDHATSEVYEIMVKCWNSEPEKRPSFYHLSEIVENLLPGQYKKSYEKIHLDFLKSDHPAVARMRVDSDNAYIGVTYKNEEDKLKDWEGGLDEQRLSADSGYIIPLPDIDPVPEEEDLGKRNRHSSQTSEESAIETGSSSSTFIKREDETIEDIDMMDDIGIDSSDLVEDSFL
# In short: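 Purified PDGFRα protein (20 ng) reacted with test compound per the Promega kinase system protocol. ADP formed was measured by ADP-Glo luminescence against a standard curve, giving IC50.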
# [4] = system: GPR17+ cells in brain tissue; assay: Differentiation of newly generated OPCs after a second dose, GPR17+ cells; assay type: in vivo, C57BL/6 mice
# Protocol: Further to the results provided above in Example 244, it was assessed whether OPCs that are newly generated (i.e., through self-renewal) after PDGFRα inhibitor administration have the ability to differentiate into mature oligodendrocytes. As described below, testing this made use of the transient characteristics of GPR17 expression. […] Therefore, the effects of a first and second dose of compound can be distinguished from one another. In these experiments, mice received a first dose of either vehicle or compound, which differentiated the OPCs and reduced the size of the OPC population. Five, fourteen, or twenty-one days later, mice received a second dose of compound and the response to the second dose was measured. These intervals tested whether newly generated OPCs could respond to compound and differentiate into oligodendrocytes. It also tested what the minimum interval was between two doses to get a nearly full response from the second dose.
# Mice were treated with a vehicle control and/or Compound 78. The specific treatment groups were as follows: (1) single dose of the vehicle control on day 1; (2) a dose of the vehicle control on day 0 and a dose of compound 78 on day 5; (3) a first dose of compound 78 on day 0 and a second dose of compound 78 on day 5; (4) a first dose of compound 78 on day 0 and a second dose of compound 78 on day 14; and (5) a first dose of compound 78 on day 0 and a second dose of compound 78 on day 21. As described in the above examples, the animals were sacrificed three days after the last dose and their brains were harvested for analysis. GPR17+ expression in the brain tissue was assessed as described herein. Then, the mice were sacrificed 3 days after the second dose and the brains were harvested for analysis.
# Histology was performed as described in Example 244 using reagents described in Table xx (below).
# Images obtained from the histology preparations were analyzed using a custom protocol implemented with Visiopharm software to count GPR17+ cells.
# [5] = system: Oligodendrocyte progenitor cells (OPCs); assay: In vitro OPC differentiation assay, GPR17 expression (immunocytochemistry); details: 72 hours, fold change over vehicle; for GPR17 Fold Induction (Over Vehicle; 3 μM): 3 μM (10× concentration, final 0.3 μM)
# MBP (myelin) in brain = assay: Remyelination in chronically demyelinated mice (cuprizone model), MBP staining; assay type: in vivo, C57BL/6 mice; details: for In vivo MBP Increases: MBP staining at day 10 after the first dose, blinded score
# Protocol: The ability of newly constructed compounds (described in above Examples) to induce remyelination after demyelination in adult mice was tested using a cuprizone model. Cuprizone administration specifically induces the loss of myelin and oligodendrocytes. Mice were maintained on cuprizone chow to induce demyelination, the cuprizone was discontinues, and the compounds were administered. The animals were sacrificed 10 days after compound administration was initiated and their brains sections and stained for MBP, an important component of myelin.
# The chow was stored at 4° C. until use.
# Mice were allowed ad libitum access to cuprizone chow. […] The cuprizone diet was discontinued 24 hours before compound treatment was initiated.
# To assess oligodendrocyte differentiation, the mice were euthanized and assessed at day 3 after the first dose. To assess MBP expression, the animals were euthanized and assessed at day 10 after the first dose.
# For some compounds, MBP intensity, an intensity weighted positive pixel count, was measured using an algorithm developed in Visiopharm Software.
# [6] = Mus musculus, po, 24 h, read-out: GPR17 Fold Induction (Over Vehicle)
# [7] = 20 ng purified PDGFRα, Poly (Glu4Tyr1) substrate, two hours, 11-point dose response, read-out: IC50 Values on PDGFRα Kinase Inhibition
# [8] = 11-point dose response, 10,000 nM to 0.169 nM, BLQ = below limit of quantitation, read-out: IC50 Values on PDGFRα Kinase Inhibition, IC50
MBP Fold Induction (Over vehicle) [2],IC50 (PDGFRα; [8]) [nM],GPR17 Fold Induction (Over Vehicle; 3 μM) [5],SMILES,"fold induction at 3 mg/kg [3, 6]",In vivo MBP Increases (MBP (myelin) in brain),further results
,,,"CN1CCC[C@@H]1CCO[C@](C)(c1ccccc1)c1ccc(Cl)cc1 [Clemastine, clemastine, reference compound]",,+ (given a score from 1 to 5),"In vivo GPR17+ cells, GPR17 Fold Induction (Over Vehicle) ([3]; adult female C57BL/6 mice, PO or IP, treatment period 1-3 days, entire brain, fold change over vehicle treated animals): 1.55"
,,,"Cn1cc(-c2cc3c(N4CCN(c5ncc([C@@](C)(N)c6ccc(F)cc6)cn5)CC4)ncnn3c2)cn1 [Avapritinib, avapritinib, reference compound]",,++++ (given a score from 1 to 5),
2.95,407,4.47,"Cn1cc(-c2ccc3c(N4CCN(c5ncc(Cc6ccccc6)cn5)CC4)cnn3c2)cn1 [Compound 6, 3-[4-(5-benzylpyrimidin-2-yl)piperazin-1-yl]-6-(1-methyl-1H-pyrazol-4-yl)pyrazolo[1,5-a]pyridine]",,"+++++ (5 representing the level of myelination observed in naïve, healthy animals that had not undergone demyelination)","fold induction at 150 mg/kg [3, 6]: 18.7; MBP expression within the different regions of the brain (MBP (myelin) in brain; single dose, versus vehicle control): significant increase in MBP expression; Half-life (In vivo half-life): longer half-life; IC50 (PDGFRα; [7]): < 1000 nM; GPR17 Fold Induction (Over Vehicle; 5 μM) ([5]; 5 μM (10× concentration, final 0.5 μM)): 4.07"
4.04,267,6.77,"COc1ccc(Cc2cnc(N3CCN(c4cnn5cc(-c6cnn(C)c6)ccc45)CC3)nc2)cc1 [Compound 254, 3-(4-(5-(4-methoxybenzyl)pyrimidin-2-yl)piperazin-1-yl)-6-(1-methyl-1H-pyrazol-4-yl)pyrazolo[1,5-a]pyridine]",,,"fold induction at 10 mg/kg [3, 6]: 10.7"
6.20,220,6.34,"Cn1cc(-c2ccc3c(N4CCN(c5ncc(C(O)CCc6ccccc6)cn5)CC4)cnn3c2)cn1 (stereo not drawn) [Compound 175, 1-(2-(4-(6-(1-methyl-1H-pyrazol-4-yl)pyrazolo[1,5-a]pyridin-3-yl)piperazin-1-yl)pyrimidin-5-yl)-3-phenylpropan-1-ol]",5.15,,
116.12,,10.56,"C[C@@H](OC(=O)N1CCN(c2cnn3cc(-c4cnn(C)c4)ccc23)CC1)c1ccc(C(F)(F)F)cc1 [Compound 313, (1R)-1-[4-(trifluoromethyl)phenyl]ethyl 4-[6-(1-methyl-1H-pyrazol-4-yl)pyrazolo[1,5-a]pyridin-3-yl]piperazine-1-carboxylate]",10.5,,"IC50 Values on PDGFRα Kinase Inhibition, IC50 (nM) (PDGFRα; 11-point dose response, 10,000 nM to 0.169 nM, BLQ = below limit of quantitation): BLQ"
2.71,67,6.70,"Cn1cc(-c2ccc3c(N4CCN(C(=O)NCc5ccc(Cl)cc5)CC4)cnn3c2)cn1 [Compound 275, N-(4-chlorobenzyl)-4-[6-(1-methyl-1H-pyrazol-4-yl)pyrazolo[1,5-a]pyridin-3-yl]piperazine-1-carboxamide]",5.31,,

SMILES,MBP Fold Induction (Over vehicle) [2],IC50 (PDGFRα; [8]) [nM],GPR17 Fold Induction (Over Vehicle; 3 μM) [5],"fold induction at 3 mg/kg [3, 6]",In vivo MBP Increases (MBP (myelin) in brain),further results
"C[C@@H](OC(=O)N1CCN(c2cnn3cc(-c4cnn(C)c4)ccc23)CC1)c1ccc(Cl)cc1 [Compound 78, (1R)-1-(4-Chlorophenyl)ethyl 4-[6-(1-methyl-1H-pyrazol-4-yl)pyrazolo[1,5-a]pyridin-3-yl]piperazine-1-carboxylate]",10.93,< 0.17,13.71,14.9,,"Time post administration until number of OPCs in the brain was comparable to control animals ([1]; single administration 5 mg/kg): about 9 days; OPC population recovery after 6 days ([1]; single administration, Compound 78 compared to Compound 6): greater recovery; Half-life (In vivo half-life): shorter half-life than Compound 6; IC50 (PDGFRα; [7]): < 1000 nM; GPR17+ cells within the brain tissue ([4]; Group 2: vehicle on day 0, first dose of compound on day 5, sacrificed three days after the last dose): significant numbers of GPR17+ cells; GPR17+ cells after second dose ([4]; Group 3: two doses at a dosing interval of 5 days, compared to dosing intervals of 14 days and 21 days): significantly fewer GPR17+ cells; Dosing interval necessary to see any effect on oligodendrocyte generation from the second administration ([4]; mice, two separate doses): greater than 5 days"
